From patent US5663186A, “Treatment of atherosclerosis with angiotensin II receptor blocking imidazoles” (Merck & Co., Inc., priority 1995, dated 1997)

What was measured:
[1] = system: patients with mild to moderate hypertension; assay: Clinical study: total cholesterol; format: in vivo
Procedure: (§1) The total, HDL, LDL and VLDL cholesterol levels were measured using the procedures described below:
Cholesterol esters in the sample are hydrolyzed by cholesterol esterase to cholesterol and free fatty acids. The cholesterol produced in the reaction plus the free cholesterol present in the sample, are oxidized by cholesterol oxidase to form cholesten-3-one and hydrogen peroxide. Peroxidase catalyzes the hydrogen peroxide oxidation and 4-aminoantipyrine(4-AAP) and phenol with subsequent coupling to 3,4-dichlorophenol. The end product is a quinoneimine dye which is read at a primary wavelength of 520 nm. The color formation is proportional to the concentration of cholesterol present. This absorbance value is then compared to the absorbance by a known calibrator. The result is then printed out directly in mg/dL.

[2] = system: patients with mild to moderate hypertension; assay: Clinical study: HDL cholesterol; format: in vivo
Procedure: as §1
High Density Lipoprotein Cholesterol
The high density lipoprotein (HDL) cholesterol was measured by analyzing a 2.0 mL volume of non-hemolyzed serum or EDTA plasma(heparinized plasma is not recommended), which has been separated from the cells within 30 minutes of collection. A fasting specimen of at least 12 hours is required for accurate interpretation. In most persons, the plasma cholesterol level is affected very little by a recent meal. However, in some persons an increase of up to 100 mg/dL may be induced by a recent meal. The level of cholesterol in plasma is slightly lower than serum (approximately 3%) due to the fact that the liquid EDTA dilutes the plasma slightly and it somotically draws water out of the erythrocytes.
The method used for in this procedure utilizes the precipitating properties of phosphotungstate. Addition of the HDL precipitating reagent lowers the pH of the sample to the isoelectric point for the LDL and VLDL. LDL and VLDL molecules at pH 5.7 have overall electrical neutrality.
Phosphotungstate then selectively forms insoluble ligand complexes with LDL and VLDL. Differences in ionic strength forcefully precipitate these complexes. Centrifugation removes them, leaving the HDL fraction in the supernatant. The resulting supernatant cholesterol (HDL) is then assayed for cholesterol. Cholesterol esters in the sample are hydrolyzed by cholesterol esterase to cholesterol and free fatty acids. The cholesterol produced in the reaction plus the free cholesterol present in the sample, are oxidized by cholesterol oxidase to form cholesten-3-one and hydrogen peroxide. Peroxidase catalyzes the hydrogen peroxide oxidation and 4-aminoantipyrine (4-AAP) and phenol with subsequent coupling to 3,4-dichlorophenol.
The end product is a quinoneimine dye which is read at a primary wavelength of 520 nm. The color formation is proportional to the concentration of cholesterol present. This absorbance value is then compared to the absorbance by a known calibrator. The result is then printed out directly in mg/dL.

[3] = system: patients with mild to moderate hypertension; assay: Clinical study: LDL cholesterol; format: in vivo
Procedure: as §1
The low density lipoprotein cholesterol is computed by subtracting from the cholesterol value determined above one-fifth of the triglycerides and the HDL cholesterol value determined above. This LDL computation is valid only if the triglyceride level is less than 400 mg/dL.

[4] = system: patients with mild to moderate hypertension; assay: Clinical study: triglycerides; format: in vivo
Procedure: (§2) After six weeks the non-responders were titrated to a 100 mg oral dose administered once daily.

[5] = system: patients with mild to moderate hypertension; assay: Clinical study: plasma renin activity; format: in vivo
Procedure: as §2

[6] = system: patients with mild to moderate hypertension; assay: Clinical study: sitting diastolic blood pressure; format: in vivo; details: for Peak Sitting Diastolic Blood Pressure, Mean (on treatment) / Mean Change in Peak Sitting Diastolic Blood Pressure / Change in Peak Sitting Diastolic Blood Pressure, adj. mean: peak (6 hours postdose); for Trough Sitting Diastolic Blood Pressure, Mean (on treatment) / Mean Change in Trough Sitting Diastolic Blood Pressure / Change in Trough Sitting Diastolic Blood Pressure, adj. mean: trough (24 hours postdose)
Procedure: Sitting Diastolic Blood Pressure Results At Week 6 and 12
The changes from baseline blood pressure (primary=trough sitting diastolic blod pressure at weeks 6 and 12) were evaluated using a least squares analysis of the means based upon an analysis of covariance (covariate=baseline blood pressure)for a randomized block (block=investigator site) design. An "all-patients-treated" and a "per-protocol" analysis were performed. The study was designed to detect a 5 mmHg difference in mean change between treatments with 95% probability based upon a group size of 86 with an α of 0.05 (two-sided) and a standard deviation of 9 mmHg.

AT1 receptor subtype = details: cited from earlier work

CCCCc1nc(Cl)c(CO)n1Cc1ccc(-c2ccccc2-c2nnn[nH]2)cc1.[K] [Losartan, 2-n-butyl-4-chloro-1-[(2'-(tetrazol-5-yl)-1,1'-biphenyl-4-yl)-methyl]-1H-imidazole-5-methanol potassium salt]
TOTAL CHOLESTEROL, CHANGE MEAN ([1]; LOS 50, week 12, N 107, change from baseline 211.1): -3.9 mg/dL | TOTAL CHOLESTEROL, TREATMENT MEAN ([1]; LOS 50, week 12, N 107, oral once daily): 207.3 mg/dL | TOTAL CHOLESTEROL, TREATMENT MEAN ([1]; LOS 50/100, week 12, N 106): 204.8 mg/dL | TOTAL CHOLESTEROL, CHANGE MEAN ([1]; LOS 50/100, week 12, N 106, change from baseline 212.6): -7.9 mg/dL | HDL CHOLESTEROL, TREATMENT MEAN ([2]; LOS 50, week 12, N 107): 52.1 mg/dL | HDL CHOLESTEROL, CHANGE MEAN ([2]; LOS 50, week 12, N 107, change from baseline 52.5): -0.4 mg/dL | HDL CHOLESTEROL, TREATMENT MEAN ([2]; LOS 50/100, week 12, N 106): 52.3 mg/dL | HDL CHOLESTEROL, CHANGE MEAN ([2]; LOS 50/100, week 12, N 106, change from baseline 52.9): -0.5 mg/dL | LDL CHOLESTEROL, TREATMENT MEAN ([3]; LOS 50, week 12, N 102): 123.5 mg/dL | LDL CHOLESTEROL, CHANGE MEAN ([3]; LOS 50, week 12, N 102, change from baseline 127.7): -4.2 mg/dL | LDL CHOLESTEROL, TREATMENT MEAN ([3]; LOS 50/100, week 12, N 95): 117.9 mg/dL | LDL CHOLESTEROL, CHANGE MEAN ([3]; LOS 50/100, week 12, N 95, change from baseline 126.3): -8.4 mg/dL | TRIGLYCERIDES, TREATMENT MEAN ([4]; LOS 50, week 12, N 107): 173.1 mg/dL | TRIGLYCERIDES, CHANGE MEAN ([4]; LOS 50, week 12, N 107, change from baseline 170.4): 2.7 mg/dL | TRIGLYCERIDES, TREATMENT MEAN ([4]; LOS 50/100, week 12, N 106): 187.8 mg/dL | TRIGLYCERIDES, CHANGE MEAN ([4]; LOS 50/100, week 12, N 106, change from baseline 174.4): 13.4 mg/dL | PLASMA RENIN ACTIVITY, TREATMENT MEAN ([5]; LOS 50, week 12, N 99): 2.889 ng/mL/h | PLASMA RENIN ACTIVITY, CHANGE MEAN ([5]; LOS 50, week 12, N 99, change from baseline 1.300): 1.589 ng/mL/h | PLASMA RENIN ACTIVITY, TREATMENT MEAN ([5]; LOS 50/100, week 12, N 96): 3.724 ng/mL/h | PLASMA RENIN ACTIVITY, CHANGE MEAN ([5]; LOS 50/100, week 12, N 96, change from baseline 1.473): 2.251 ng/mL/h | Category I: Trough SDBP <90 mmHg, number of patients ([6]; 6 wk, 50 mg, of 125): 37 | Category I: Trough SDBP <90 mmHg, percent of patients ([6]; 6 wk, 50 mg, of 125): 29.6% | Category II: Trough SDBP ≥90 mmHg, number of patients ([6]; 6 wk, 50 mg, of 125): 20 | Category II: Trough SDBP ≥90 mmHg, percent of patients ([6]; 6 wk, 50 mg, of 125): 16.0% | Category III: Neither Category I or II, number of patients ([6]; 6 wk, 50 mg, of 125): 68 | Category III: Neither Category I or II, percent of patients ([6]; 6 wk, 50 mg, of 125): 54.4% | Category I: Trough SDBP <90 mmHg, number of patients ([6]; 6 wk, 50/100 mg, of 118): 37 | Category I: Trough SDBP <90 mmHg, percent of patients ([6]; 6 wk, 50/100 mg, of 118): 31.3% | Category II: Trough SDBP ≥90 mmHg, number of patients ([6]; 6 wk, 50/100 mg, of 118): 21 | Category II: Trough SDBP ≥90 mmHg, percent of patients ([6]; 6 wk, 50/100 mg, of 118): 17.7% | Category III: Neither Category I or II, number of patients ([6]; 6 wk, 50/100 mg, of 118): 60 | Category III: Neither Category I or II, percent of patients ([6]; 6 wk, 50/100 mg, of 118): 50.8% | Category I: Trough SDBP <90 mmHg, number of patients ([6]; 12 wk, 50 mg, of 125): 40 | Category I: Trough SDBP <90 mmHg, percent of patients ([6]; 12 wk, 50 mg, of 125): 32.0% | Category II: Trough SDBP ≥90 mmHg, number of patients ([6]; 12 wk, 50 mg, of 125): 18 | Category II: Trough SDBP ≥90 mmHg, percent of patients ([6]; 12 wk, 50 mg, of 125): 14.4% | Category III: Neither Category I or II, number of patients ([6]; 12 wk, 50 mg, of 125): 67 | Category III: Neither Category I or II, percent of patients ([6]; 12 wk, 50 mg, of 125): 53.6% | Category I: Trough SDBP <90 mmHg, number of patients ([6]; 12 wk, 50/100 mg, of 118): 37 | Category I: Trough SDBP <90 mmHg, percent of patients ([6]; 12 wk, 50/100 mg, of 118): 31.3% | Category II: Trough SDBP ≥90 mmHg, number of patients ([6]; 12 wk, 50/100 mg, of 118): 24 | Category II: Trough SDBP ≥90 mmHg, percent of patients ([6]; 12 wk, 50/100 mg, of 118): 20.3% | Category III: Neither Category I or II, number of patients ([6]; 12 wk, 50/100 mg, of 118): 57 | Category III: Neither Category I or II, percent of patients ([6]; 12 wk, 50/100 mg, of 118): 48.3% | Peak Sitting Diastolic Blood Pressure, Mean (on treatment) ([6]; 6 wk, 50 mg, N 118, all-patients-treated): 90.2 mmHg | Mean Change in Peak Sitting Diastolic Blood Pressure ([6]; 6 wk, 50 mg, N 118, baseline 99.9): -9.7 mmHg | Change in Peak Sitting Diastolic Blood Pressure, adj. mean ([6]; 6 wk, 50 mg, N 118, least squares): -9.7 mmHg | Peak Sitting Diastolic Blood Pressure, Mean (on treatment) ([6]; 6 wk, 50/100 mg, N 111, all-patients-treated): 90.3 mmHg | Mean Change in Peak Sitting Diastolic Blood Pressure ([6]; 6 wk, 50/100 mg, N 111, baseline 99.1): -8.9 mmHg | Change in Peak Sitting Diastolic Blood Pressure, adj. mean ([6]; 6 wk, 50/100 mg, N 111, least squares): -9.0 mmHg | Peak Sitting Diastolic Blood Pressure, Mean (on treatment) ([6]; 12 wk, 50 mg, N 121, all-patients-treated): 90.3 mmHg | Mean Change in Peak Sitting Diastolic Blood Pressure ([6]; 12 wk, 50 mg, N 121, baseline 99.8): -9.5 mmHg | Change in Peak Sitting Diastolic Blood Pressure, adj. mean ([6]; 12 wk, 50 mg, N 121, least squares): -9.3 mmHg | Peak Sitting Diastolic Blood Pressure, Mean (on treatment) ([6]; 12 wk, 50/100 mg, N 113, all-patients-treated): 89.1 mmHg | Mean Change in Peak Sitting Diastolic Blood Pressure ([6]; 12 wk, 50/100 mg, N 113, baseline 99.2): -10.1 mmHg | Change in Peak Sitting Diastolic Blood Pressure, adj. mean ([6]; 12 wk, 50/100 mg, N 113, least squares): -10.1 mmHg | Trough Sitting Diastolic Blood Pressure, Mean (on treatment) ([6]; 6 wk, 50 mg, N 125, all-patients-treated): 95.3 mmHg | Mean Change in Trough Sitting Diastolic Blood Pressure ([6]; 6 wk, 50 mg, N 125, baseline 102.1): -6.9 mmHg | Change in Trough Sitting Diastolic Blood Pressure, adj. mean ([6]; 6 wk, 50 mg, N 125, least squares): -6.9 mmHg | Trough Sitting Diastolic Blood Pressure, Mean (on treatment) ([6]; 6 wk, 50/100 mg, N 118, all-patients-treated): 94.3 mmHg | Mean Change in Trough Sitting Diastolic Blood Pressure ([6]; 6 wk, 50/100 mg, N 118, baseline 102.2): -7.9 mmHg | Change in Trough Sitting Diastolic Blood Pressure, adj. mean ([6]; 6 wk, 50/100 mg, N 118, least squares): -7.9 mmHg | Trough Sitting Diastolic Blood Pressure, Mean (on treatment) ([6]; 12 wk, 50 mg, N 125, all-patients-treated): 94.2 mmHg | Mean Change in Trough Sitting Diastolic Blood Pressure ([6]; 12 wk, 50 mg, N 125, baseline 102.1): -7.9 mmHg | Change in Trough Sitting Diastolic Blood Pressure, adj. mean ([6]; 12 wk, 50 mg, N 125, least squares): -7.9 mmHg | Trough Sitting Diastolic Blood Pressure, Mean (on treatment) ([6]; 12 wk, 50/100 mg, N 118, all-patients-treated): 93.6 mmHg | Mean Change in Trough Sitting Diastolic Blood Pressure ([6]; 12 wk, 50/100 mg, N 118, baseline 102.2): -8.6 mmHg | Change in Trough Sitting Diastolic Blood Pressure, adj. mean ([6]; 12 wk, 50/100 mg, N 118, least squares): -8.6 mmHg | AII antagonism, oral activity (AT1 receptor subtype): orally active A II antagonists
